{"source": "patent US20140127231A1", "about": "“p38 MAPK Pathway Inhibitors as Female-Specific Therapeutics” (UNIVERSITY OF VERMONT, priority 2012, published 2014)", "key": {"[1]": {"tested_on": "experimental autoimmune encephalomyelitis (EAE)", "test": "Active EAE, 2×MOG35-55+CFA, clinical course (Example 1/2)", "type": "in vivo, C57BL/6J (B6) mice", "conditions": "for Clinical EAE course: daily treatment from D0, 5 mg/kg/d IP", "description": "EAE was induced in female C57BL/6J mice as described previously (Noubade et al., 2007, J Clin Invest., 117(11):3507-3518). Mice were injected subcutaneously with an emulsion containing 200 μg of MOG35-55 peptide ([…] (SEQ ID NO: 1) and complete Freund adjuvant (CFA; Sigma-Aldrich) supplemented with 200 μg of Mycobacterium tuberculosis H37RA (Difco Laboratories) in the posterior right and left flank; 1 week later, all mice were similarly injected at 2 sites on the right and left flank anterior of the initial injection sites (2×MOG35-55+CFA). Mice received 5 mg/kg/d SB203580 dihydrochloride (Tocris) by IP injection in a total volume of 200 μL or an equal volume of carrier every day from the day of immunization.\nEAE was induced in B10.BR, MKK6-Tg, and dn-p38-Tg mice by immunizing with a single injection of 200 μg of MOG97-114 (TCFFRDHSYQEEAAVELK (SEQ ID NO: 2)) or PLP180-209 ([…] (SEQ ID NO: 3)) in CFA. Immediately thereafter, each animal received 200 ng of PTX (List Biologic Laboratories) by IV injection. Mice were scored daily starting at day 10 after injection as previously described (Noubade et al., 2007, J Clin Invest., 117(11):3507-3518). Clinical quantitative trait variables were generated as previously described (Butterfield et al., 1998, J Immunol., 161(4):1860-1867).\nAge-matched male and female C57BL/6J (B6) mice were treated with the p38 MAPK inhibitor SB203580 (SB) starting at the time of immunization for the induction of EAE with myelin oligodendrocyte glycoprotein peptide 35-55 (MOG35-55) and complete Freund's adjuvant (CFA). Clinical EAE course in male and female B6 mice immunized with 2×MOG35-55-CFA treated daily with either carrier or SB starting on D0. […] In separate experiments, Clinical EAE course in female B6 mice immunized with 2×MOG35-55-CFA and randomly selected for daily treatment with either carrier or SB upon reaching a clinical score≧1. It was observed that disease progression could also be halted in female mice if the inhibitor was administered at the first onset of clinical signs (FIG. 1B)."}, "[2]": {"tested_on": "experimental autoimmune encephalomyelitis (EAE)", "test": "Active EAE, 2×MOG35-55/CFA protocol, clinical course (Example 3)", "type": "in vivo, C57BL/6J (B6) mice", "conditions": "5 mg/kg/day i.p. daily from day of immunization; for EAE disease course: 5 mg/kg/day", "description": "Female (FIG. 15A) and male (FIG. 15B) B6 mice were immunized using the 2×MOG35-55/CFA protocol, followed by daily injections of SB203580 or carrier. Data represent 2 independent experiments, pooled. Data were analyzed as indicated in Materials and Methods. […] For individual time points, * ≦0.05; ** ≦0.01, *** ≦0.001, **** ≦0.0001. Numbers in parentheses indicate the total number of animals studied.\nEAE was induced essentially as described previously (Noubade R, et al., J Clin Invest. 2007 November; 117(11):3507-18). Briefly, mice were injected s.c. with an emulsion containing 100 μg of MOG35-55 peptide ([…]; SEQ ID NO: 1) (Anaspec, USA) and complete Freund's adjuvant (CFA) (Sigma-Aldrich, St. Louis, Mo.) supplemented with 200 μg of Mycobacterium tuberculosis H37Ra (Difco Laboratories, Detroit, Mich.) in the posterior right and left flanks. One week later all mice were similarly injected at two sites on the right and left flank anterior of the initial injection sites (2×MOG35-55/CFA). Alternatively, mice were immunized with 200 μg of MOG35-55 in CFA, followed by i.v. administration of 200 ng pertussis toxin (List Biological) (1×MOG35-55/CFA/PTX). In some experiments (as indicated), mice received 5 mg/kg/day of SB203580 dihydrochloride (Tocris, Ellisville, Mo.) by i.p. injection in a total volume of 200 μl or an equal volume of carrier daily starting on the day of immunization. Mice were scored daily starting at day 10 post-injection as previously described (Noubade R, et al., J Clin Invest. 2007 November; 117(11):3507-18). Passive EAE was induced as follows. […]\nAll statistical analyses were performed using GraphPad Prism 6 software (GraphPad Software Inc, San Diego, Calif.). The significance of differences in cytokine production and flow cytometry data were determined using 2-way ANOVA. The significance of differences observed in clinical course of EAE was determined by 2-way ANOVA and post-hoc analysis using Fisher's LSD test for individual time points (significance indicated by “*” above each time point). […] EAE data from replicate experiments were analyzed by heterogeneity testing. […]"}, "[3]": {"conditions": "female B6 mice, treatment from D0 stopped after 30 days"}}, "note": "Entries after “also recorded” stand apart in the source; their conditions may differ."}
{"smiles": "C[S+]([O-])c1ccc(-c2nc(-c3ccncc3)c(-c3ccc(F)cc3)[nH]2)cc1", "note": "(stereo not shown) [SB203580]", "values": [{"measurement": "Clinical EAE course", "setting": "[1]; female B6 mice", "value": "female-specific therapy for EAE; also recorded: ameliorated EAE"}, {"measurement": "Clinical EAE course", "setting": "[1]; female B6 mice, listed as SB", "value": "fully prevented disease; also recorded: completely inhibits EAE"}, {"measurement": "Disease progression (clinical EAE course)", "setting": "[1]; female B6 mice, daily treatment started upon reaching clinical score ≧1", "value": "halted"}, {"measurement": "Disease severity on readministration", "setting": "[1]; female B6 mice, re-treated from D41 thru D60", "value": "modest reduction and stabilization of their disease severity"}, {"measurement": "EAE severity reached after discontinuing treatment", "setting": "[1]; [3]", "value": "equivalent severity to those seen in carrier-treated mice"}, {"measurement": "Time to appearance of clinical signs of EAE after discontinuing treatment", "setting": "[1]; [3]", "value": "2 to 3", "unit": "days"}, {"measurement": "Clinical EAE course", "setting": "[1]; male B6 mice, listed as SB", "value": "completely unresponsive"}, {"measurement": "EAE disease course", "setting": "[2]; female B6 mice", "value": "robustly ameliorated; also recorded: significant difference in EAE course"}, {"measurement": "EAE onset", "setting": "[2]; male B6 mice", "value": "accelerated"}, {"measurement": "EAE disease course", "setting": "[2]; male B6 mice", "value": "showed no therapeutic efficacy; also recorded: augmented; also recorded: did not reduce EAE"}]}
